Measured values reported in PubChem BioAssay AID248 (DTP/NCI, 2004).
Inconclusive results and toxic doses are left out. Cut-off read from the data, not from the text of the source: active = T/C of 150% or more; inactive = T/C below 125%.

System: L1210 leukemia ip in BDF1 mice, survival T/C
Test: NCI In Vivo Anticancer Drug Screen. Data for tumor model L1210 Leukemia (intraperitoneal) in B6D2F1 (BDF1) mice
Conditions: endpoint: mean survival time, higher = longer survival
Description: The antitumor activity of compounds was measured in mice bearing transplantable tumors. Survival or tumor size were measured and the results are expressed as the measurement made in the treated group (T) divided by the measurement made in the vehicle treated control group (C). The tumor model used in this assay is L1210 Leukemia (intraperitoneal) in B6D2F1 (BDF1) mice

[1] = dose: 15.0 mg/kg/injection, schedule: Q01DX Z (ip), vehicle: methylcellulose (MC)
[2] = dose: 100.0 mg/kg/injection, schedule: Q01DX001 (ip), vehicle: Klucel (hydroxypropylcellulose) (HPC)
[3] = dose: 200.0 mg/kg/injection, schedule: Q01DX001 (ip), vehicle: Klucel (hydroxypropylcellulose) (HPC)
[4] = dose: 100.0 mg/kg/injection, schedule: Q01DX009 (ip), vehicle: Klucel (hydroxypropylcellulose) (HPC)
[5] = dose: 200.0 mg/kg/injection, schedule: Q01DX009 (ip), vehicle: Klucel (hydroxypropylcellulose) (HPC)
[6] = dose: 400.0 mg/kg/injection, schedule: Q01DX009 (ip), vehicle: Klucel (hydroxypropylcellulose) (HPC)
[7] = dose: 100.0 mg/kg/injection, schedule: Q01DX001 (ip), vehicle: saline
[8] = dose: 200.0 mg/kg/injection, schedule: Q01DX001 (ip), vehicle: carboxymethylcellulose (CMC)
[9] = dose: 200.0 mg/kg/injection, schedule: Q01DX001 (ip), vehicle: saline
[10] = dose: 50.0 mg/kg/injection, schedule: Q01DX009 (ip), vehicle: Klucel (hydroxypropylcellulose) (HPC)
[11] = dose: 100.0 mg/kg/injection, schedule: Q01DX001 (ip), vehicle: carboxymethylcellulose (CMC)
[12] = dose: 400.0 mg/kg/injection, schedule: Q01DX001 (ip), vehicle: carboxymethylcellulose (CMC)
[13] = dose: 100.0 mg/kg/injection, schedule: Q04DX003 (ip), vehicle: Klucel (hydroxypropylcellulose) (HPC)
[14] = dose: 200.0 mg/kg/injection, schedule: Q04DX003 (ip), vehicle: Klucel (hydroxypropylcellulose) (HPC)
[15] = dose: 400.0 mg/kg/injection, schedule: Q04DX003 (ip), vehicle: Klucel (hydroxypropylcellulose) (HPC)
[16] = dose: 100.0 mg/kg/injection, schedule: Q01DX009 (ip), vehicle: saline with Tween-80
[17] = dose: 200.0 mg/kg/injection, schedule: Q01DX009 (ip), vehicle: saline with Tween-80

Measured: T/C

Cc1ccc(S(=O)(=O)N2CC(O)C(O)C2Cn2cnc3c(N)ncnc32)cc1 (configuration not stated)
inactive: dose: 50.0 mg/kg/injection, schedule: Q04DX002 (ip), vehicle: saline 96 % of control | dose: 100.0 mg/kg/injection, schedule: Q04DX002 (ip), vehicle: saline 102 % of control | dose: 200.0 mg/kg/injection, schedule: Q04DX002 (ip), vehicle: saline 102 % of control

NC(N)=N/N=C(/C(=N\N=C(N)N)c1ccco1)c1ccco1
inactive: dose: 8.0 mg/kg/injection, schedule: Q01DX Z (oral), vehicle: methylcellulose (MC) 89 % of control | [1] 100 % of control | dose: 15.0 mg/kg/injection, schedule: Q01DX Z (oral), vehicle: methylcellulose (MC) 96 % of control | dose: 30.0 mg/kg/injection, schedule: Q01DX Z (oral), vehicle: methylcellulose (MC) 105 % of control

O=c1cc(NCc2cccc3ccc(Cl)cc23)[nH]c(=O)[nH]1
inactive: dose: 50.0 mg/kg/injection, schedule: Q01DX001 (ip), vehicle: Klucel (hydroxypropylcellulose) (HPC) 92 % of control | [2] 88 % of control | [3] 87 % of control

Cc1ccc(CC#N)c(-c2c(CC#N)ccc(C)c2C)c1C
inactive: dose: 100.0 mg/kg/injection, schedule: Q04DX002 (ip), vehicle: gum acacia 87 % of control | dose: 200.0 mg/kg/injection, schedule: Q04DX002 (ip), vehicle: gum acacia 93 % of control | dose: 400.0 mg/kg/injection, schedule: Q04DX002 (ip), vehicle: gum acacia 93 % of control

CN(C=O)C(=S)[S][Sb]([S]C(=S)Nc1ccc(S(=O)(=O)Nc2ccc(N=Nc3ccccc3)cc2)cc1)[S]C(=S)N(C)C=O
inactive: dose: 100.0 mg/kg/injection, schedule: Q01DX001 (ip), vehicle: steriod suspending solution 106 % of control | dose: 200.0 mg/kg/injection, schedule: Q01DX001 (ip), vehicle: steriod suspending solution 90 % of control

O=C(Nc1cccc([N+](=O)[O-])c1)Nc1ccccc1C(F)(F)F
inactive: [4] 94 % of control | [5] 91 % of control | [6] 93 % of control

CS(=O)(=O)c1nc(N)nc2nc[nH]c12
inactive: dose: 7.5 mg/kg/injection, schedule: Q01DX Z (ip), vehicle: methylcellulose (MC) 95 % of control | dose: 10.0 mg/kg/injection, schedule: Q01DX001 (ip), vehicle: carboxymethylcellulose (CMC) 101 % of control | dose: 12.5 mg/kg/injection, schedule: Q01DX009 (ip), vehicle: saline 109 % of control | [1] 115 % of control | dose: 25.0 mg/kg/injection, schedule: Q01DX009 (ip), vehicle: saline 100 % of control | dose: 30.0 mg/kg/injection, schedule: Q01DX Z (ip), vehicle: methylcellulose (MC) 117 % of control | dose: 50.0 mg/kg/injection, schedule: Q01DX001 (ip), vehicle: saline 95 % of control | dose: 50.0 mg/kg/injection, schedule: Q01DX009 (ip), vehicle: saline 102 % of control | dose: 50.0 mg/kg/injection, schedule: Q04DX003 (ip), vehicle: saline 98 % of control | dose: 60.0 mg/kg/injection, schedule: Q01DX Z (ip), vehicle: carboxymethylcellulose (CMC) 119 % of control | dose: 60.0 mg/kg/injection, schedule: Q01DX Z (ip), vehicle: methylcellulose (MC) 123 % of control | dose: 75.0 mg/kg/injection, schedule: Q01DX Z (ip), vehicle: methylcellulose (MC) 120 % of control | [7] 101 % of control | dose: 100.0 mg/kg/injection, schedule: Q01DX009 (ip), vehicle: saline 97 % of control | dose: 100.0 mg/kg/injection, schedule: Q04DX003 (ip), vehicle: saline 93 % of control | [8] 100 % of control | [9] 117 % of control | dose: 200.0 mg/kg/injection, schedule: Q01DX009 (ip), vehicle: saline 103 % of control | dose: 200.0 mg/kg/injection, schedule: Q04DX003 (ip), vehicle: saline 98 % of control

COC(=O)C1CC2CCC1O2 (configuration not stated)
inactive: dose: 100.0 mg/kg/injection, schedule: Q01DX009 (ip), vehicle: carboxymethylcellulose (CMC) 100 % of control | dose: 200.0 mg/kg/injection, schedule: Q01DX009 (ip), vehicle: carboxymethylcellulose (CMC) 98 % of control | dose: 400.0 mg/kg/injection, schedule: Q01DX009 (ip), vehicle: carboxymethylcellulose (CMC) 94 % of control

COc1ccc([N+](=O)[O-])cc1NC(=O)Nc1ccc(Nc2ccccc2)cc1
inactive: [10] 97 % of control | [4] 94 % of control | [5] 90 % of control

COC(=O)C(c1ccccc1)C(Br)C(=O)c1ccc(Cl)cc1 (configuration not stated)
inactive: [4] 92 % of control | [5] 97 % of control | [6] 94 % of control

O=C1CCCCCCNCCCCCC1
inactive: dose: 100.0 mg/kg/injection, schedule: Q01DX001 (ip), vehicle: acetone 97 % of control | dose: 200.0 mg/kg/injection, schedule: Q01DX001 (ip), vehicle: acetone 108 % of control | dose: 400.0 mg/kg/injection, schedule: Q01DX001 (ip), vehicle: acetone 103 % of control

CS(=O)(=O)Oc1c(Br)cc(Br)c2cccnc12
inactive: [11] 104 % of control | [8] 98 % of control | [12] 98 % of control

COC(=O)C1=CC=CC1
inactive: dose: 100.0 mg/kg/injection, schedule: Q01DX005 (ip), vehicle: Klucel (hydroxypropylcellulose) (HPC) 103 % of control | [4] 104 % of control | dose: 200.0 mg/kg/injection, schedule: Q01DX005 (ip), vehicle: Klucel (hydroxypropylcellulose) (HPC) 98 % of control | [5] 104 % of control | dose: 400.0 mg/kg/injection, schedule: Q01DX005 (ip), vehicle: Klucel (hydroxypropylcellulose) (HPC) 95 % of control | [6] 93 % of control

C(/CCc1ccccc1)=N\Nc1nnc(N/N=C/CCc2ccccc2)c2ccccc12
inactive: dose: 50.0 mg/kg/injection, schedule: Q01DX001 (ip), vehicle: carboxymethylcellulose (CMC) 102 % of control | [11] 105 % of control | [8] 102 % of control

O=[N+]([O-])c1ccc(C=Nc2cccc3ccccc23)s1
inactive: [13] 95 % of control | [14] 95 % of control | [15] 92 % of control

C[N+]12CC3C(O)CC1CCC32 (configuration not stated)
inactive: [7] 101 % of control

CC(=O)c1ccc(Oc2ccc([N+](=O)[O-])cc2)cc1
inactive: [13] 98 % of control | [14] 96 % of control | [15] 101 % of control

O=C1OC(c2cccc(Cl)c2)=N/C1=C\c1cc(Br)ccc1O
inactive: dose: 100.0 mg/kg/injection, schedule: Q04DX002 (ip), vehicle: saline with Tween-80 89 % of control | dose: 200.0 mg/kg/injection, schedule: Q04DX002 (ip), vehicle: saline with Tween-80 96 % of control | dose: 400.0 mg/kg/injection, schedule: Q04DX002 (ip), vehicle: saline with Tween-80 89 % of control

CCCCCCCCCCCCSc1ccc2ccccc2c1
inactive: [2] 87 % of control | [3] 92 % of control

CCCCCCCCCCCCCCCCSC1CC(=O)N(c2ccc3c(c2)Cc2ccccc2-3)C1=O (configuration not stated)
inactive: [13] 96 % of control | [14] 96 % of control | [15] 100 % of control

c1cc[n+]2c(c1)-c1cccc[n+]1CCC2
inactive: [11] 94 % of control | [8] 101 % of control | [12] 92 % of control

Cc1c2ccccc2c(CN(C)CC(=O)O)c2ccccc12
inactive: dose: 50.0 mg/kg/injection, schedule: Q01DX009 (ip), vehicle: saline with Tween-80 92 % of control | [16] 90 % of control | [17] 92 % of control

COc1c([N+](=O)[O-])cc(C)nc1Cl
inactive: [7] 95 % of control | [9] 101 % of control | dose: 400.0 mg/kg/injection, schedule: Q01DX001 (ip), vehicle: saline 101 % of control

CCOC(=O)CCC(=O)c1cccc([N+](=O)[O-])c1
inactive: [16] 98 % of control | [17] 96 % of control | dose: 400.0 mg/kg/injection, schedule: Q01DX009 (ip), vehicle: saline with Tween-80 96 % of control

NNc1nc2ccccc2s1
inactive: dose: 6.25 mg/kg/injection, schedule: Q01DX009 (ip), vehicle: Klucel (hydroxypropylcellulose) (HPC) 90 % of control | dose: 12.5 mg/kg/injection, schedule: Q01DX009 (ip), vehicle: Klucel (hydroxypropylcellulose) (HPC) 100 % of control | dose: 25.0 mg/kg/injection, schedule: Q01DX009 (ip), vehicle: Klucel (hydroxypropylcellulose) (HPC) 94 % of control | [10] 91 % of control
